According to ChEMBL document CHEMBL1145770, “Efficient synthesis of 3-trifluoromethylphenyldiazirinyl oleic acid derivatives and their biological activity for protein kinase C” (Bioorg Med Chem Lett, 2003):

Target: Protein kinase C alpha type (Homo sapiens) (UniProt P17252)
Assay: Effect on diacylglycerol induced (DAG) PKC activation at 1-10 uM
Format: functional

For O=C(O)CCCCCCC/C=C/CCCCCCCCOc1cc(C2(C(F)(F)F)N=N2)ccc1I, the Activity was 40%.
